Data as given in patent US8143192B2, “Methods for increasing the resistance of plants to hypoxic conditions” (Bayer Cropscience N.V., priority 2005, dated 2012).
Like-named read-outs stand apart in the source and are kept apart here.

Columns and labels:
[1] = system: Arabidopsis thaliana cv. C24 plants; experiment: Depth of Arabidopsis root growth in growth medium after application of 6-chloronicotinic acid (6-CNA); type: in vivo; conditions: for Root depth, mean: after three weeks, untreated mean 2.031034
Description: Sterilization of Arabidopsis seeds: 2 min.
Low light overnight to 24 hours.
Plants are grown at 23° C. 30-50 μEinstein s^−1m^−2. 12 hours light-12 hours dark. (See FIG. 1)

[2] = system: Arabidopsis thaliana cv. C24 plants; conditions: 0.7% Difco agar; for Root depth, mean: after three weeks, untreated mean 1.9475, *p < 0.01
Description: A container (1) with a seal (2) is filled with a transparent or translucent growth medium (3), such as 0.4% agar-water or 0.7% agar-water, to which additional test-compounds may be added. One pregerminated seed is added to the tube and allowed to grow for three weeks. After three weeks of growth in vertical position, the root depth (5) of the plant (4) is measured from the top of the medium to the lowest point of the roots.
Germination medium: Half concentrated Murashige and Skoog salts; B5 vitamins; 1.5% sucrose; pH 5.8; 0.4% Difco agar.
Sterilization of Arabidopsis seeds: 2 min. 70% ethanol; 10 min. bleach (6% active chlorine)+1 drop Tween 20 for 20 ml solution; wash 5 times with sterile tap water; sterilization is done in 2 ml eppendorf tubes. Arabidopsis seeds sink to the bottom of the tube, allowing removal of the liquids by means of a 1 ml pipetman.
Pregermination of seeds: In 9 cm Optilux Petridishes (Falcon) containing 10 ml sterile tap water. Low light overnight to 24 hours.
Growing of Arabidopsis plants: Seeds are sown in 25×150 mm glass tubes (Sigma C5916) with natural (transparent) colored closure (Sigma C5791) containing ±34 ml germination medium: 1 seed/tube. The tubes are put in the two outer rows of tube holders for 40 tubes (VWR nalg5970-0025) wrapped in aluminium foil so that the roots can grow in the dark. Plants are grown at 23° C. 30-50 μEinstein s^−1m^−2. 12 hours light-12 hours dark.
After three weeks, the root depth is measured from the surface of the medium to the lowest point of root growth.

| SMILES | Root depth, mean ([1]; 1 mg/L 6-CNA in germination medium, *p < 0.01) [mm] | Root depth, mean ([1]; 5 mg/L 6-CNA in germination medium, **p < 0.05) [mm] | Root protrusion into growth medium compared to non-treated plants ([1]; 1 and 5 mg/l 6-CNA, three weeks) | Root depth, mean ([2]; 50 mg/L imidacloprid in germination medium) [mm] | Root depth, mean ([2]; 100 mg/L imidacloprid in germination medium) [mm] | Root protrusion into growth medium compared to non-treated plants ([2]; 50 and 100 mg/l imidacloprid, three weeks) |
| --- | --- | --- | --- | --- | --- | --- |
| O=C(O)c1ccc(Cl)nc1 [6-CNA, 6-chloronicotinic acid] | 2.18 | 2.118 | protruded deeper in the growth medium |  |  |  |
| O=[N+]([O-])/N=C1\NCCN1Cc1ccc(Cl)nc1 [imidacloprid] |  |  |  | 2.1875 | 2.2725 | protruded deeper in the growth medium |
